Active and inactive are the calls of the source.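 The calls were made as follows: active = a response that changes with dose, reported with a potency and a percent of the peak acetylcholine response; inactive = the rest.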

Muscarinic acetylcholine receptor M1 (Rattus norvegicus), sequence (P08482 whole entry, looked up): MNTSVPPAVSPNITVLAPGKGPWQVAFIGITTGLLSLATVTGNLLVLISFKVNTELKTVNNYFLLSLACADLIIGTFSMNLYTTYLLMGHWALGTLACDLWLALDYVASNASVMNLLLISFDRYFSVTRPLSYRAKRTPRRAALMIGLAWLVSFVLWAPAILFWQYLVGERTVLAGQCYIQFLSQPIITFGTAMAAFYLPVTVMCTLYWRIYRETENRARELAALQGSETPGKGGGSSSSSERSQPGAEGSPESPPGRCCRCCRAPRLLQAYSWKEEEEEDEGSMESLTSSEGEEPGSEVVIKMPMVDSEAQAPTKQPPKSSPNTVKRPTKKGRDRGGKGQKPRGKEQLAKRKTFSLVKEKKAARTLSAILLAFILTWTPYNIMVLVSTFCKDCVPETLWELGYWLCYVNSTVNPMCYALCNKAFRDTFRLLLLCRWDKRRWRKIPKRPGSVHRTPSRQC

The first test concerns the target Muscarinic acetylcholine receptor M1 (Rattus norvegicus) (UniProt P08482). In words: rat M1 muscarinic receptor PAM counter-screen, SAR follow-up, selectivity assay for M4 PAM optimization project, CHO cells, Fluo-4 calcium, ACh EC20 (AID 623940). The note with it: CHO rat M1, Fluo-4 calcium, ACh EC20 potentiation.
Take `Cc1nc2sc(C(=O)NCc3ccccc3)c(N)c2c(C)c1Cl`: the result was inactive.

As to `Cc1nc2sc(C(=O)NCc3ccncc3)c(N)c2c(C)c1Cl`, the result was inactive.

In the case of `Cc1nc2sc(C(=O)NCc3cccnc3)c(N)c2c(C)c1Cl`, the result was inactive.

For the compound `Cc1nc2sc(C(=O)NCc3ccc4c(c3)OCO4)c(N)c2c(C)c1Cl`, the outcome was inactive.

In general, EC50 refers to the midpoint of the concentration-response curve. In the case of `Cc1nc2sc(C(=O)NC3CC3)c(N)c2c(C)c1Cl`, the EC50 was 943 nM.

The same test, now with this note: CHO rat M1, Fluo-4 calcium, ACh EC20 potentiation; at 30 µM (top of the series).
Consider `COc1ccc(C)c2sc(NC(=O)c3ccncc3)nc12`, for which the “percent of ACh max response” value was “inactive”.

On to `Cc1nc2sc(C(=O)NCCc3ccncc3)c(N)c2c(C)c1Cl`, for which the “percent of ACh max response” value was “inactive”.

Regarding `Cc1nc2sc(C(=O)NCc3ccncn3)c(N)c2c(C)c1Cl`, the “percent of ACh max response” value is “inactive”.

`Cc1nc2sc(C(=O)NCc3cccc(F)c3F)c(N)c2c(C)c1Cl`: the “percent of ACh max response” value is “inactive”.

As to `Cc1nc2sc(C(=O)NCc3nccs3)c(N)c2c(C)c1Cl`, the “percent of ACh max response” value is “inactive”.

These data come from PubChem BioAssay AID623940 (Vanderbilt Specialized Chemistry Center, 2012).
